Data taken from publication PMC2653189 (PLoS ONE, 2009).

What was measured:
[1] = test system: IL-6-mediated Stat3 nuclear translocation (GFP-Stat3α); test: HTFM nuclear translocation assay in MEF/GFP-Stat3α cells; type: cell-based, murine; conditions: Mus musculus, compound 1 hour, then IL-6 200 ng/ml and IL-6sR 250 ng/ml 30 min, read-out: HTFM IC50, inhibition of IL-6-mediated Stat3 nuclear translocation
Protocol: Confocal and high-throughput fluorescence microscopy (HTFM) of MEF/GFP-Stat3α cells were performed as described. Briefly, for confocal fluorescence microscopy, cells were grown in 6-well plates containing a cover slip. For HTFM, cells were seeded into 96-well CC3 plates at a density of 5,000 cells/well using an automated plating system. Cells were cultured under standard conditions until 85–90% confluent. Cells were pre-treated with compound for 1 hour at 37°C then stimulated with IL-6 (200 ng/ml) and IL-6sR (250 ng/ml) for 30 minutes to provide optimal Stat3 activation and nuclear translocation in these cells, as described. Cells were fixed with 4% formaldehyde in PEM Buffer (80 mM Potassium PIPES, pH 6.8, 5 mM EGTA pH 7.0, 2 mM MgCl2) for 30 minutes at 4°C, quenched in 1 mg/ml of NaBH4 (Sigma) in PEM buffer and counterstained for 1 min in 4,6-diamidino-2-phenylindole (DAPI; Sigma; 1 mg/ml) in PEM buffer. Cover slips were examined by confocal fluorescent microscopy. Plates were analyzed by automated HTFM using the Cell Lab IC Image Cytometer (IC100) platform and Cytoshop Version 2.1 analysis software (Beckman Coulter). Nuclear translocation is quantified by using the fraction localized in the nucleus (FLIN) measurement. FLIN values were normalized by subtracting the FLIN for unstimulated cells then dividing this difference by the maximum difference (delta, Δ) in FLIN (FLIN in cells stimulated with IL-6/sIL-6R in the absence of compound minus FLIN of unstimulated cells). This ratio was multiplied by 100 to obtain the percentage of maximum difference in FLIN and was plotted, where indicated, as a function of the log compound concentration. The best-fitting curve and IC50 value were determined using 4-Parameter Logistic Model/Dose Response/XLfit 4.2, IDBS software.
Figure 4 Inhibition of cytoplasmic-to-nuclear translocation of Stat3 assessed by confocal and high-throughput fluorescence microscopy (HTFM). […] Coverslips were examined by confocal fluorescent microscopy using filters to detect GFP (column one), DAPI (column two) or both (merge; column three). In panel B, MEF-GFP-Stat3 cells were grown in 96-well plates with optical glass bottoms and pre-treated with the indicated compound at the indicated concentrations in quadruplicate for 1 hour then stimulated with IL-6 (200 ng/ml) and IL-6sR (250 ng/ml) for 30 minutes. Cells were fixed and the plates were examined by high-throughput microscopy to determine the fluorescence intensity in the nucleus (FLIN). The percent of maximum change (delta, Δ) in FLIN was calculated as described in the Methods and plotted as a function of the log of the compound concentration. […] Best-fit curves were determined using 4-Parameter Logistic Model/Dose Response/XLfit 4.2, IDBS software and were used to calculate the IC50 values (Table 2).

[2] = test system: IL-6-mediated phosphorylation of Stat3; test: Immunoblot of IL-6-mediated Stat3 phosphorylation in HepG2 cells; type: cell-based; conditions: Homo sapiens, compound 60 min, then IL-6 30 ng/ml 30 min, read-out: pStat3 IC50, inhibition of IL-6-mediated Stat3 phosphorylation
Protocol: (§1) The human hepatocellular carcinoma cell line (HepG2) was grown in 6-well plates under standard conditions. Cells were pretreated with compounds (0, 1, 3, 10, 30, 100 and 300 µM) for 1 hour then stimulated under optimal conditions with either interleukin-6 (IL-6; 30 ng/ml for 30 min) to activate Stat3 or interferon gamma (IFN-γ; 30 ng/ml for 30 min) to activate Stat1 [28]. Cultures were then harvested and proteins extracted using high-salt buffer, as described. Briefly, extracts were mixed with 2× sodium dodecyl sulfate (SDS) sample buffer (125 mM Tris-HCL pH 6.8; 4% SDS; 20% glycerol; 10% 2-mercaptoethanol) at a 1∶1 ratio and heated for 5 minutes at 100°C. Proteins (20 µg) were separated by 7.5% SDS-PAGE and transferred to polyvinylidene fluoride (PVDF) membrane (Millipore, Waltham, MA) and immunoblotted. Prestained molecular weight markers (BioRad; Hercules, CA) were included in each gel. Membranes were probed serially with antibody against Stat1 pY701 or Stat3 pY705 followed by antibody against Stat1 or Stat3 (Transduction labs, Lexington, KY) then antibody against β–actin (Abcam, Cambridge, MA). Membranes were stripped between antibody probing using Restore™ Western Blot Stripping Buffer (Thermo Fisher Scientific Inc., Waltham, MA) per the manufacturer's instructions. Horseradish peroxidase-conjugated goat-anti-mouse IgG was used as the secondary antibody (Invitrogen Carlsbad, CA) and the membranes were developed with enhanced chemiluminescence (ECL) detection system (Amersham Life Sciences Inc.; Arlington Heights, IL.).
Figure 2 Effect of compounds on ligand-mediated Stat3 and Stat1 phosphorylation. […] Cells were then stimulated with IL-6 (30 ng/ml) for 30 min. Protein extracts of cells were separated by SDS-PAGE, blotted and developed serially with antibodies to pStat3, total Stat3 and β-actin. Blots were stripped between each antibody probing. Band intensities were quantified by densitometry. […] The best-fitting curve was determined using 4-Parameter Logistic Model/Dose Response/XLfit 4.2, IDBS software and was used to calculate the IC50 value (Table 1). […]

[3] = test system: IFN-γ-mediated Stat1 phosphorylation; test: Immunoblot of IFN-γ-mediated Stat1 phosphorylation in HepG2 cells; type: cell-based, human; conditions: compound 300 µM 1 hour, IFN-γ 30 ng/ml 30 min
Protocol: as §1
Figure 2 Effect of compounds on ligand-mediated Stat3 and Stat1 phosphorylation. […] Cells were then stimulated with IL-6 (30 ng/ml) for 30 min. Protein extracts of cells were separated by SDS-PAGE, blotted and developed serially with antibodies to pStat3, total Stat3 and β-actin. Blots were stripped between each antibody probing. Band intensities were quantified by densitometry. The value of each pStat3 band was divided by its corresponding total Stat3 band intensity; the results were normalized to the DMSO-treated control value. This value was plotted as a function of the log compound concentration. The best-fitting curve was determined using 4-Parameter Logistic Model/Dose Response/XLfit 4.2, IDBS software and was used to calculate the IC50 value (Table 1). Each panel is representative of 3 or more experiments. In panel G, HepG2 cells were pretreated with DMSO alone or DMSO containing each of the compounds at a concentration of 300 µM for 60 min. Cells were then stimulated with IFN-γ (30 ng/ml) for 30 min. Protein extracts of cells were separated by SDS-PAGE and immunoblotted serially with antibodies to pStat1, total Stat1 and β-actin. Blots were stripped between each immunoblotting. The results shown are representative of 2 or more experiments.

- IC50 [1]: 131 µM
- IC50 [2]: 91 µM
SMILES: O=C(O)c1ccc(C=CC(=O)c2ccc3c(c2)OCCO3)cc1 [Cpd3, 4-[3-(2,3-dihydro-1,4-benzodioxin-6-yl)-3-oxo-1-propen-1-yl]benzoic acid]
- Block of IFN-γ-stimulated Stat1 phosphorylation [3]: did not
